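At the GI50, growth is halved. At the TGI there is no net growth.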
Assays:
Test in all cases: NCI anticancer screen, dose series, 384-well format
[1] = tested on: UO-31 renal
[2] = tested on: SK-MEL-28 melanoma
[3] = tested on: HCT-15 colon
[4] = tested on: NCI-H226 lung
[5] = tested on: ACHN renal
[6] = tested on: SN12C renal
[7] = tested on: SNB-75 CNS
[8] = tested on: OVCAR-8 ovarian
[9] = tested on: MDA-MB-435 melanoma
[10] = tested on: OVCAR-4 ovarian
[11] = tested on: IGROV1 ovarian
[12] = tested on: MDA-MB-468 breast
[13] = tested on: LOX IMVI melanoma
[14] = tested on: CCRF-CEM leukemia
[15] = tested on: DU-145 prostate
[16] = tested on: 786-0 renal
[17] = tested on: M14 melanoma
[18] = tested on: A549 NSCLC
[19] = tested on: NCI-H322M lung
[20] = tested on: SK-OV-3 ovarian
[21] = tested on: U251 glioblastoma
[22] = tested on: SNB-19 CNS
[23] = tested on: HOP-62 NSCLC
[24] = tested on: NCI-H23 lung
[25] = tested on: T-47D breast
[26] = tested on: HCC-2998 colon
[27] = tested on: UACC-62 melanoma
[28] = tested on: COLO 205 colon
[29] = tested on: TK-10 renal
[30] = tested on: SK-MEL-5 melanoma
[31] = tested on: A498 renal
[32] = tested on: SW-620 colon
[33] = tested on: K-562 leukemia
[34] = tested on: MOLT-4 leukemia
[35] = tested on: OVCAR-3 ovarian
[36] = tested on: UACC-257 melanoma
[37] = tested on: HT29 colon
[38] = tested on: NCI-H460 NSCLC
[39] = tested on: PC-3 prostate
[40] = tested on: HOP-92 NSCLC
[41] = tested on: MALME-3M melanoma
[42] = tested on: OVCAR-5 ovarian
[43] = tested on: SR leukemia
[44] = tested on: KM12 colon
[45] = tested on: RPMI-8226 leukemia
[46] = tested on: NCI/ADR-RES ovarian
[47] = tested on: MCF7 breast
[48] = tested on: BT-549 breast
[49] = tested on: SF-295 CNS
[50] = tested on: HL-60(TB) leukemia
[51] = tested on: SF-268 CNS
[52] = tested on: HS 578T breast
[53] = tested on: SF-539 CNS
[54] = tested on: EKVX NSCLC
[55] = tested on: RXF 393 renal
[56] = tested on: CAKI-1 renal
[57] = tested on: NCI-H522 lung
[58] = tested on: MDA-MB-231 breast

CCN1CCN(Cc2ccc(-c3cc4c(N[C@H](C)c5ccccc5)ncnc4[nH]3)cc2)CC1
GI50 [1]: 1.33 µM | TGI [1]: 11.9 µM | GI50 [2]: 1.59 µM | TGI [2]: 2.94 µM | GI50 [3]: 1.36 µM | TGI [3]: 2.75 µM | GI50 [4]: 1.1 µM | TGI [4]: 4.44 µM | GI50 [5]: 0.089 µM | TGI [5]: 1.52 µM | GI50 [6]: 0.203 µM | TGI [6]: 2.07 µM | GI50 [7]: 2.04 µM | TGI [7]: 5.98 µM | GI50 [8]: 1.57 µM | TGI [8]: 3.74 µM | GI50 [9]: 1.62 µM | TGI [9]: 3.04 µM | GI50 [10]: 1.56 µM | TGI [10]: 5.25 µM | GI50 [11]: 0.12 µM | TGI [11]: 0.695 µM | GI50 [12]: 0.0227 µM | TGI [12]: 0.06 µM | GI50 [13]: 1.57 µM | TGI [13]: 2.91 µM | GI50 [14]: 1.83 µM | TGI [14]: 3.23 µM | GI50 [15]: 1.54 µM | TGI [15]: 10.8 µM | GI50 [16]: 1.07 µM | TGI [16]: 2.28 µM | GI50 [17]: 1.59 µM | TGI [17]: 2.95 µM | GI50 [18]: 1.06 µM | TGI [18]: 3.52 µM | GI50 [19]: 0.0517 µM | TGI [19]: 1.13 µM | GI50 [20]: 0.349 µM | TGI [20]: 1.71 µM | GI50 [21]: 1.8 µM | TGI [21]: 3.62 µM | GI50 [22]: 2.46 µM | TGI [22]: 11.6 µM | GI50 [23]: 1.66 µM | TGI [23]: 3.31 µM | GI50 [24]: 1.52 µM | TGI [24]: 3.94 µM | GI50 [25]: 0.439 µM | TGI [25]: 2.59 µM | GI50 [26]: 1.56 µM | TGI [26]: 3.04 µM | GI50 [27]: 1.62 µM | TGI [27]: 3 µM | GI50 [28]: 1.78 µM | TGI [28]: 3.29 µM | GI50 [29]: 0.389 µM | TGI [29]: 2.04 µM | GI50 [30]: 1.53 µM | TGI [30]: 2.87 µM | GI50 [31]: 1.22 µM | TGI [31]: 2.61 µM | GI50 [32]: 1.77 µM | TGI [32]: 3.51 µM | GI50 [33]: 0.217 µM | TGI [33]: 0.55 µM | GI50 [34]: 1.34 µM | TGI [34]: 2.62 µM | GI50 [35]: 1.32 µM | TGI [35]: 5.36 µM | GI50 [36]: 1.36 µM | TGI [36]: 2.64 µM | GI50 [37]: 1.45 µM | TGI [37]: 2.93 µM | GI50 [38]: 1.75 µM | TGI [38]: 3.57 µM | GI50 [39]: 1.85 µM | TGI [39]: 8.64 µM | GI50 [40]: 1.26 µM | TGI [40]: 2.64 µM | GI50 [41]: 1.38 µM | TGI [41]: 2.68 µM | GI50 [42]: 0.44 µM | TGI [42]: 2.79 µM | GI50 [43]: 1.76 µM | TGI [43]: 3.15 µM | GI50 [44]: 1.92 µM | TGI [44]: 4.07 µM | GI50 [45]: 1.28 µM | TGI [45]: 2.55 µM | GI50 [46]: 2.02 µM | TGI [46]: 6.11 µM | GI50 [47]: 1.49 µM | TGI [47]: 2.97 µM | GI50 [48]: 1.59 µM | TGI [48]: 3.14 µM | GI50 [49]: 1.71 µM | TGI [49]: 3.23 µM | GI50 [50]: 1.66 µM | TGI [50]: 3.02 µM | GI50 [51]: 1.49 µM | TGI [51]: 3.35 µM | GI50 [52]: 1.48 µM | TGI [52]: 2.83 µM | GI50 [53]: 1.56 µM | TGI [53]: 2.91 µM | GI50 [54]: 0.0912 µM | TGI [54]: 2.34 µM | GI50 [55]: 1.42 µM | TGI [55]: 2.81 µM | GI50 [56]: 0.299 µM | TGI [56]: 1.88 µM | GI50 [57]: 0.111 µM | TGI [57]: 1.32 µM | GI50 [58]: 1.56 µM | TGI [58]: 3.64 µM

— PubChem BioAssay (NCI)
